From PubChem BioAssay (NCI)
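Interpolation was linear, between the two tested concentrations surrounding the appropriate level; five concentrations were tested over 48 hours in 96-well plates. At the GI50, growth is halved. The concentration for full growth arrest is given as TGI.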

How the values were obtained:
Assay in all cases: NCI tumour cell line growth inhibition, 48 h
786-0 renal = system: 786-0 renal
A498 renal = system: A498 renal
A549 NSCLC = system: A549 NSCLC
ACHN renal = system: ACHN renal
CCRF-CEM leukemia = system: CCRF-CEM leukemia
COLO 205 colon = system: COLO 205 colon
DLD-1 colon = system: DLD-1 colon
DMS 114 small cell lung = system: DMS 114 small cell lung
DMS 273 small cell lung = system: DMS 273 small cell lung
EKVX NSCLC = system: EKVX NSCLC
HCC-2998 colon = system: HCC-2998 colon
HCT-116 colon = system: HCT-116 colon
HCT-15 colon = system: HCT-15 colon
HL-60(TB) leukemia = system: HL-60(TB) leukemia
HOP-18 NSCLC = system: HOP-18 NSCLC
HOP-62 NSCLC = system: HOP-62 NSCLC
HOP-92 NSCLC = system: HOP-92 NSCLC
HT29 colon = system: HT29 colon
IGROV1 ovarian = system: IGROV1 ovarian
K-562 leukemia = system: K-562 leukemia
KM12 colon = system: KM12 colon
LOX IMVI melanoma = system: LOX IMVI melanoma
LXFL 529 NSCLC = system: LXFL 529 NSCLC
M14 melanoma = system: M14 melanoma
M19-MEL melanoma = system: M19-MEL melanoma
MALME-3M melanoma = system: MALME-3M melanoma
MOLT-4 leukemia = system: MOLT-4 leukemia
NCI-H226 lung = system: NCI-H226 lung
NCI-H23 lung = system: NCI-H23 lung
NCI-H460 lung = system: NCI-H460 lung
NCI-H522 lung = system: NCI-H522 lung
OVCAR-3 ovarian = system: OVCAR-3 ovarian
OVCAR-4 ovarian = system: OVCAR-4 ovarian
OVCAR-5 ovarian = system: OVCAR-5 ovarian
OVCAR-8 ovarian = system: OVCAR-8 ovarian
RPMI-8226 leukemia = system: RPMI-8226 leukemia
RXF 393 renal = system: RXF 393 renal
RXF-631 renal = system: RXF-631 renal
SF-268 CNS = system: SF-268 CNS
SF-295 CNS = system: SF-295 CNS
SF-539 CNS = system: SF-539 CNS
SK-MEL-2 melanoma = system: SK-MEL-2 melanoma
SK-MEL-28 melanoma = system: SK-MEL-28 melanoma
SK-MEL-5 melanoma = system: SK-MEL-5 melanoma
SK-OV-3 ovarian = system: SK-OV-3 ovarian
SN12C renal = system: SN12C renal
SNB-19 CNS = system: SNB-19 CNS
SNB-75 CNS = system: SNB-75 CNS
SNB-78 CNS = system: SNB-78 CNS
SR leukemia = system: SR leukemia
SW-620 colon = system: SW-620 colon
TK-10 renal = system: TK-10 renal
U251 CNS = system: U251 CNS
UACC-257 melanoma = system: UACC-257 melanoma
UACC-62 melanoma = system: UACC-62 melanoma
UO-31 renal = system: UO-31 renal
CAKI-1 renal = system: CAKI-1 renal
XF 498 CNS = system: XF 498 CNS
KM20L2 colon = system: KM20L2 colon

With `O=C1CC(C2(O)C(=O)Nc3ccc([N+](=O)[O-])cc32)c2ccccc21` (centres undefined) the TGI (786-0 renal) was 36.6 µM, the TGI (A498 renal) was > 100 µM and the TGI (A549 NSCLC) was > 100 µM. The TGI (ACHN renal) was > 100 µM, the TGI (CCRF-CEM leukemia) was 61.1 µM and the TGI (COLO 205 colon) was 71.6 µM. The TGI (DLD-1 colon) was > 100 µM, the TGI (DMS 114 small cell lung) was 23.9 µM and the TGI (DMS 273 small cell lung) was 41.4 µM. For the same compound, the TGI (EKVX NSCLC) was > 100 µM, the TGI (HCC-2998 colon) was 44.9 µM and the TGI (HCT-116 colon) was > 100 µM. For the same compound, the TGI (HCT-15 colon) was 37.8 µM, the TGI (HL-60(TB) leukemia) was 45.3 µM and the TGI (HOP-18 NSCLC) was > 100 µM. For the same compound, the TGI (HOP-62 NSCLC) was > 100 µM, the TGI (HOP-92 NSCLC) was 85.4 µM and the TGI (HT29 colon) was 62.7 µM. The TGI (IGROV1 ovarian) was 45.1 µM, the TGI (K-562 leukemia) was 60.6 µM and the TGI (KM12 colon) was 98.6 µM. For the same compound, the TGI (LOX IMVI melanoma) was 33 µM, the TGI (LXFL 529 NSCLC) was 76.2 µM and the TGI (M14 melanoma) was 52.2 µM. For the same compound, the TGI (M19-MEL melanoma) was 78.7 µM, the TGI (MALME-3M melanoma) was > 100 µM and the TGI (MOLT-4 leukemia) was 57.7 µM. For the same compound, the TGI (NCI-H226 lung) was 92.7 µM, the TGI (NCI-H23 lung) was 71 µM and the TGI (NCI-H460 lung) was 29.9 µM. For the same compound, the TGI (NCI-H522 lung) was 26.3 µM, the TGI (OVCAR-3 ovarian) was 67.7 µM and the TGI (OVCAR-4 ovarian) was 88.1 µM. For the same compound, the TGI (OVCAR-5 ovarian) was > 100 µM, the TGI (OVCAR-8 ovarian) was > 100 µM and the TGI (RPMI-8226 leukemia) was 57.5 µM. For the same compound, the TGI (RXF 393 renal) was 45.5 µM, the TGI (RXF-631 renal) was 31.8 µM and the TGI (SF-268 CNS) was 54.7 µM. For the same compound, the TGI (SF-295 CNS) was > 100 µM, the TGI (SF-539 CNS) was 64.1 µM and the TGI (SK-MEL-2 melanoma) was 36.5 µM. The TGI (SK-MEL-28 melanoma) was 62 µM, the TGI (SK-MEL-5 melanoma) was 75.6 µM and the TGI (SK-OV-3 ovarian) was > 100 µM. For the same compound, the TGI (SN12C renal) was 80.5 µM, the TGI (SNB-19 CNS) was > 100 µM and the TGI (SNB-75 CNS) was > 100 µM. The TGI (SNB-78 CNS) was > 100 µM, the TGI (SR leukemia) was 46.6 µM and the TGI (SW-620 colon) was 81.6 µM. The TGI (TK-10 renal) was > 100 µM, the TGI (U251 CNS) was 37.8 µM and the TGI (UACC-257 melanoma) was > 100 µM. For the same compound, the TGI (UACC-62 melanoma) was 40.2 µM and the TGI (UO-31 renal) was > 100 µM.
For `Brc1cc(C2OCCCO2)ccc1OCc1ccccc1`, the TGI (786-0 renal) was > 100 µM, the TGI (A498 renal) was > 100 µM and the TGI (A549 NSCLC) was > 100 µM. The TGI (ACHN renal) was > 100 µM, the TGI (CAKI-1 renal) was > 100 µM and the TGI (CCRF-CEM leukemia) was > 100 µM. For the same compound, the TGI (COLO 205 colon) was 56.9 µM, the TGI (DLD-1 colon) was > 100 µM and the TGI (DMS 114 small cell lung) was > 100 µM. The TGI (DMS 273 small cell lung) was > 100 µM, the TGI (EKVX NSCLC) was > 100 µM and the TGI (HCC-2998 colon) was > 100 µM. For the same compound, the TGI (HCT-15 colon) was > 100 µM, the TGI (HL-60(TB) leukemia) was > 100 µM and the TGI (HOP-62 NSCLC) was > 100 µM. For the same compound, the TGI (HOP-92 NSCLC) was > 100 µM, the TGI (HT29 colon) was 33.2 µM and the TGI (IGROV1 ovarian) was > 100 µM. The TGI (K-562 leukemia) was > 100 µM, the TGI (KM12 colon) was > 100 µM and the TGI (LOX IMVI melanoma) was 63.5 µM. For the same compound, the TGI (LXFL 529 NSCLC) was > 100 µM, the TGI (M14 melanoma) was > 100 µM and the TGI (M19-MEL melanoma) was > 100 µM. For the same compound, the TGI (MALME-3M melanoma) was > 100 µM, the TGI (MOLT-4 leukemia) was > 100 µM and the TGI (NCI-H226 lung) was > 100 µM. For the same compound, the TGI (NCI-H23 lung) was > 100 µM, the TGI (NCI-H460 lung) was > 100 µM and the TGI (NCI-H522 lung) was > 100 µM. For the same compound, the TGI (OVCAR-3 ovarian) was > 100 µM, the TGI (OVCAR-4 ovarian) was > 100 µM and the TGI (OVCAR-5 ovarian) was 92.5 µM. The TGI (OVCAR-8 ovarian) was > 100 µM, the TGI (RPMI-8226 leukemia) was > 100 µM and the TGI (RXF 393 renal) was > 100 µM. The TGI (SF-268 CNS) was > 100 µM, the TGI (SF-295 CNS) was > 100 µM and the TGI (SF-539 CNS) was > 100 µM. For the same compound, the TGI (SK-MEL-2 melanoma) was > 100 µM, the TGI (SK-MEL-28 melanoma) was > 100 µM and the TGI (SK-MEL-5 melanoma) was 71.4 µM. The TGI (SK-OV-3 ovarian) was > 100 µM, the TGI (SN12C renal) was > 100 µM and the TGI (SNB-19 CNS) was > 100 µM. For the same compound, the TGI (SNB-75 CNS) was > 100 µM, the TGI (SNB-78 CNS) was > 100 µM and the TGI (SW-620 colon) was > 100 µM. For the same compound, the TGI (TK-10 renal) was > 100 µM, the TGI (UACC-257 melanoma) was > 100 µM and the TGI (UACC-62 melanoma) was > 100 µM. For the same compound, the TGI (UO-31 renal) was > 100 µM and the TGI (XF 498 CNS) was > 100 µM.
With `CN1CCC(c2c(O)cc(O)c3c(=O)cc(-c4ccccc4Cl)oc23)C(O)C1` (centres undefined) the TGI (786-0 renal) was > 100 µM, the TGI (A549 NSCLC) was > 100 µM and the TGI (CCRF-CEM leukemia) was 19.3 µM. The TGI (COLO 205 colon) was 0.255 µM, the TGI (DLD-1 colon) was > 100 µM and the TGI (DMS 114 small cell lung) was 0.393 µM. It also gave a TGI (EKVX NSCLC) of 0.135 µM, a TGI (HCC-2998 colon) of 0.454 µM and a GI50 (HCT-15 colon) of 0.0506 µM. The TGI (HCT-15 colon) was > 100 µM, the TGI (HOP-18 NSCLC) was > 100 µM and the TGI (HOP-92 NSCLC) was 0.337 µM. For the same compound, the TGI (HT29 colon) was > 56.3 µM, the GI50 (IGROV1 ovarian) was 0.0827 µM and the TGI (IGROV1 ovarian) was > 100 µM. For the same compound, the GI50 (K-562 leukemia) was 0.297 µM, the TGI (K-562 leukemia) was > 100 µM and the TGI (KM12 colon) was > 100 µM. The GI50 (KM20L2 colon) was 0.262 µM, the TGI (KM20L2 colon) was > 100 µM and the TGI (M14 melanoma) was 0.236 µM. It also gave a TGI (MALME-3M melanoma) of 0.598 µM, a TGI (MOLT-4 leukemia) of 0.198 µM and a TGI (NCI-H226 lung) of 0.305 µM. The TGI (NCI-H23 lung) was 0.208 µM, the TGI (NCI-H460 lung) was > 100 µM and the TGI (NCI-H522 lung) was 0.448 µM. For the same compound, the GI50 (OVCAR-3 ovarian) was < 0.01 µM, the TGI (OVCAR-3 ovarian) was 0.0223 µM and the TGI (OVCAR-4 ovarian) was 0.473 µM. The GI50 (OVCAR-5 ovarian) was 0.0687 µM, the TGI (OVCAR-5 ovarian) was 0.602 µM and the TGI (RPMI-8226 leukemia) was 0.0285 µM. For the same compound, the TGI (RXF 393 renal) was 0.0312 µM, the TGI (SF-268 CNS) was 0.238 µM and the GI50 (SF-539 CNS) was 0.288 µM. For the same compound, the TGI (SF-539 CNS) was > 100 µM, the TGI (SK-MEL-28 melanoma) was 0.6 µM and the TGI (SK-MEL-5 melanoma) was 0.107 µM. For the same compound, the TGI (SK-OV-3 ovarian) was > 73.4 µM, the TGI (SN12C renal) was > 100 µM and the TGI (SNB-19 CNS) was > 100 µM. It also gave a GI50 (SNB-75 CNS) of 0.0482 µM, a TGI (SNB-75 CNS) of 0.18 µM and a GI50 (SW-620 colon) of 0.0532 µM. For the same compound, the TGI (SW-620 colon) was > 100 µM, the TGI (TK-10 renal) was > 100 µM and the TGI (U251 CNS) was > 100 µM. The GI50 (UACC-62 melanoma) was 0.0506 µM, the TGI (UACC-62 melanoma) was 0.197 µM and the TGI (UO-31 renal) was > 100 µM. It also gave a TGI (XF 498 CNS) of 0.584 µM.
For `C/C=C(\NC(=O)C(CCCCN)NC(=O)C(C)NC(=O)C1CSC(C)C(NC(=O)C2CSCC(NC(=O)C(C)NC(=O)C(N)C(C)CC)C(=O)NC(CCCCN)C(=O)NC(Cc3ccccc3)C(=O)NC(CC(C)C)C(=O)N2)C(=O)N2CCCC2C(=O)NCC(=O)N1)C(=O)NCC(=O)NC1CSCC2NC(=O)C(Cc3ccc(O)cc3)NC(=O)C(CSC=CNC2=O)NC(=O)C(CC(N)=O)NC(=O)C(Cc2ccccc2)NC1=O` (centres undefined), the TGI (DLD-1 colon) was > 100 µM, the TGI (DMS 114 small cell lung) was > 100 µM and the TGI (DMS 273 small cell lung) was > 100 µM. The TGI (LXFL 529 NSCLC) was > 100 µM, the TGI (M19-MEL melanoma) was > 100 µM and the TGI (NCI-H23 lung) was > 100 µM. The TGI (SNB-78 CNS) was > 100 µM and the TGI (XF 498 CNS) was > 100 µM.
